Measured values reported in patent US20080069913A1, “Anti-Snoring Composition” (PERSEE MEDICA,, priority 2004, published 2008).

Key:
[1] = flow time (rate of flow) over 10 cm on a plane tilted at 45°; type: physicochemical; conditions: 0.5 ml, plate tilted 45°
Procedure: (§1) Three types of tests were performed: flow measurement on a biological membrane, the test of immersion in artificial saliva and the salting-out test. The rate of flow is the time it takes a given volume of liquid to travel 10 centimetres across a plane tilted at 45°. The saliva immersion test aims to highlight the contact time of the product with the biological membrane when it is subjected to the effect of saliva. Finally, the salting-out test aims to highlight the time it takes the product to salt out a tracer when it is subject to permanent “leaching” by the saliva. These three tests are described in full in the scientific literature and are reference tests for measuring the time a solution remains at its site of action in experimental conditions approximating the physiological conditions of the pharyngeal mucosa.
The composition (bioadhesive preparation) was examined under experimental conditions to verify its bioadhesive properties and compare them to a non-bioadhesive reference substance (distilled water) and a liposome-based commercial preparation (liposome preparation). The measurements carried out included flow time on a biological membrane and immersion in artificial saliva.
The rate of flow is the time it takes for a given volume of liquid to travel 10 cm over a plane tilted at 45°. This test was performed on 3 levels: • on a 20 cm^2 stainless-steel plate, non-biological membrane; • on a 20 cm^2 stainless-steel plate covered with a cellulose membrane, biological membrane; • on a 20 cm^2 stainless-steel plate covered in a cellulose membrane impregnated with a 5% mucin solution.
For this study, 0.5 ml was deposited 0.5 cm from the top edge of the plate, the deposit being made in horizontal position. The chronometer starting line is located 5 cm from the top edge of the plate when the liquid crosses it after tilting the plate to 45°. In the same way, the chronometer stopping line is located 5 cm from the bottom edge of the plate when the liquid crosses it.

[2] = artificial saliva immersion test; type: physicochemical; conditions: membrane covered in mucin, submerged vertically in 2 litres of artificial saliva
Procedure: as §1
The aim of the artificial saliva immersion test is to show the contact time of the product with the biological membrane when subjected to the effect of saliva. As before, the product is deposited on the surface of a biological membrane covered in mucin. After flowing over a distance of 10 cm, the plate/biological membrane/product assembly is submerged vertically in a container with 2 litres of artificial saliva. The time the product remains on the surface of the membrane is determined using a chronometer.

O [Distilled water]
<1″: flow time, Stainless-steel support ([1]; 20 cm^2 stainless-steel plate, non-biological) | flow time, Stainless-steel + membrane + mucin ([1]; cellulose membrane impregnated with 5% mucin solution) | flow time, Stainless-steel + membrane ([1]; stainless-steel plate covered with cellulose membrane) | time the product remains on the surface of the membrane [2]
